# Laboratory results: patent US20210069173A1, “PREPARATION OF (-)-COCAINE HYDROCHLORIDE” (Cody Laboratories, Inc., priority 2018, published 2021)
# Counter-ions that a name gives are not always drawn.
# Legend:
# [1] = Distribution, metabolism and excretion of cocaine
# mice = details: cited from earlier work
# [2] = cited from earlier work
# mucous membranes = test: Topical anesthesia of mucous membranes by pledget administration; assay type: in vivo, human; details: applied to mucous membranes by pledget, depends on concentration, vascularity
# Procedure: When applied to mucous membranes by pledget administration, topical anesthesia develops rapidly and persists for 30 minutes or longer depending on the concentration of cocaine HCl solution used, the dose, and on the vascularity of the tissue.
# experimental animals = details: cited from earlier work
compound,measurement,setting,value
"COC(=O)[C@H]1[C@@H](OC(=O)c2ccccc2)C[C@@H]2CC[C@H]1N2C [Cocaine, methyl (1R,2R,3S,5S)-3-(benzoyloxy)-8-methyl-8-azabicyclo[3.2.1]octane-2-carboxylate]",fraction eliminated unchanged in the urine,"[1]; human, urine",< 5%
same,potency in producing increases in locomotor activity,mice; cocaine versus cocaethylene,more potent than cocaethylene
same,metabolism by hydrolysis to ecgonine,[2]; by carboxylesterase-2,minimally metabolized
same,fraction metabolized by hydrolysis to benzoylecgonine,[2]; by hepatic carboxylesterase-1,40-45%
same,fraction metabolized by hydrolysis to ecgonine methyl ester,[2]; by plasma butyrylcholinesterase and hepatic carboxylesterase-2,40-45%
same,fraction N-demethylated to norcocaine,[2]; by the CYP3A4 enzyme system,5-10%
same,volume of distribution,[2]; in vivo,approximately 2 L/kg
"COC(=O)[C@H]1[C@@H](OC(=O)c2ccccc2)C[C@@H]2CC[C@H]1N2C [cocaine HCl, methyl (1R,2R,3S,5S)-3-(benzoyloxy)-8-methyl-8-azabicyclo[3.2.1]octane-2-carboxylate hydrochloride]",persistence of topical anesthesia,mucous membranes,≥ 30 min
"CCOC(=O)[C@H]1[C@@H](OC(=O)c2ccccc2)C[C@@H]2CC[C@H]1N2C [ethyl cocaine, ethyl (1R,2R,3S,5S)-3-(benzoyloxy)-8-methyl-8-azabicyclo[3.2.1]octane-2-carboxylate]",elimination half-life (comparative),experimental animals,longer elimination half-life
same,volume of distribution (comparative),experimental animals,larger volume of distribution
same,toxicity and arrhythmogenicity,experimental animals; versus cocaine or ethanol alone,more toxic and arrhythmogenic than either substance alone
same,potency in producing convulsions,mice; cocaine versus cocaethylene,equipotent
same,potency in producing lethality,mice; ethyl cocaine versus cocaine,more potent than cocaine
COC(=O)[C@H]1[C@@H](OC(=O)c2ccccc2)C[C@@H]2CC[C@H]1N2 [norcocaine],total systemic exposure relative to cocaine,[1]; in vivo,less than one percent
